Source: patent publication US20070135470A1, “Utilization of vinpocetine to avoid complications in particular those associated to hearing which occur with epilepsy, and treatment thereof” (UNIVERSIDAD NACIONAL AUTONOMA DE MEXICO, priority 2003, published 2007)

Key:
[1] = tested on: epilepsy induced by PTZ in guinea pigs; assay: ABR wave parameters (amplitude, latency) in PTZ-induced epilepsy; assay type: in vivo, guinea pig; details: 100 dB
Protocol: (§1) Experiments were performed in pigmented adult male guinea pigs initially weighing 349±38 g. ABRs recordings were used to evaluate the hearing status of each animal and EEG recordings to evaluate changes in cortical excitability. The ABR and EEG recordings were obtained following a method that we have previously reported (Nekrassov and Sitges, 2003). The Institutional Animal Use and Care Committee approved all experimental procedures.
(§2) Three types of recordings were performed in the anaesthetized animals, namely the ABR recordings elicited by a stimulus of high intensity (100 dB), the ABR recordings for determination of the auditory threshold and the EEG recordings.
(§3) Determination of ABR wave parameters. The latency and amplitude of each wave component of the ABR elicited by a stimulus of 100 dB with pure tone frequencies of 4 and 8 kHz was measured in all the ABR recordings obtained under the different experimental conditions at the specified times. The latency of each ABR wave (in ms) refers to the time interval between the onset of the auditory stimulus and the positive peak of the wave. The onset of the stimulus is indicated by the vertical arrow at the bottom of the recordings on FIG. 1. The peak amplitude (in μV) of each wave of the ABR is the difference between the positive peak of the wave and the reference baseline (trace between the stimulus and the appearance of the first ABR wave on FIG. 1).
(§4) Student's t-test was used for the evaluation of the differences between results obtained before and at the specified times after the injection of the convulsing agents. The criterion for statistical significance for all measures was P≦0.05. All data are expressed as means±standard error of the mean. In figures and tables the symbol * is used for indicating statistic significant differences.
(§5) Eight male guinea pigs were entered into this study. PTZ was dissolved in saline and vinpocetine in a saline acidified (with HCl) adjusted to pH 4 (with NaOH). Four hours after injecting guinea pigs with vehicle (acidified saline used to dissolve vinpocetine) the animals were anaesthetized and a first set of ABR and EEG recordings was taken before the injection (i.p) of the convulsing agent, PTZ. The animals were injected with PTZ (100 mg/kg) and about 2 min after injecting PTZ (ictal period) the EEG recording was taken. Then the other series of ABR and EEG recordings were taken at specific times within the post-ictal period. After two weeks the same series of recordings was taken but instead vehicle the animals were injected with vinpocetine (2 mg/kg) 4 hours before the injection of PTZ.

[2] = tested on: hearing loss induced by PTZ in guinea pigs; assay: ABR (auditory) threshold in PTZ-induced epilepsy; assay type: in vivo, guinea pig
Protocol: as §1, §2
(§6) Determination of ABR thresholds. ABR recordings elicited by stimuli of progressively lower intensity (in dB) were used for determining the hearing threshold. Threshold is defined as the lowest stimulus intensity (in dB) at which the P3 wave of the ABR could still be recorded in three consecutive trials.
as §4, §5

[3] = tested on: epileptic cortical activity induced by PTZ in guinea pigs; assay: EEG recordings of cortical activity in PTZ-induced epilepsy; assay type: in vivo, guinea pig; details: ictal (about 2 min) and post-ictal (10, 20, 30, 50 min) periods; vinpocetine 2 mg/kg 4 h before PTZ; FIGS. 3, 4
Protocol: as §1, §2, §5
Vinpocetine inhibits all the changes induced by PTZ on the EEG. […] This dramatic change on the cortical activity induced by PTZ in the anaesthetized animals during convulsions is followed by a typical pattern of cortical activity characterized by rhythmic spike bursts of high amplitude. The duration time of this typical pattern of cortical activity, that is not accompanied by convulsions is referred as the post-ictal period.

[4] = tested on: epilepsy induced by 4-AP in guinea pigs; assay: ABR wave parameters (amplitude, latency) in 4-AP-induced epilepsy; assay type: in vivo, guinea pig; details: 100 dB
Protocol: as §1, §2, §3, §4
(§7) Five guinea pigs were entered into the study. One hour after injecting guinea pigs with vehicle (acidified saline used to dissolve vinpocetine) the animals were anaesthetized and a first set of ABR and EEG recordings was taken before the injection (i.p) of the convulsing agent, 4-AP. The animals were injected with 4-AP (2 mg/kg) and about 20 min after injecting 4-AP (ictal period) the EEG recording was taken. Then the other series of ABR and EEG recordings were taken at specific times within the post-ictal period. After two weeks the same series of recordings were repeated but instead vehicle the animals were injected with vinpocetine (2 mg/kg) 1 hour before the injection of 4-AP.

[5] = tested on: hearing loss induced by 4-AP in guinea pigs; assay: ABR (auditory) threshold in 4-AP-induced epilepsy; assay type: in vivo, guinea pig
Protocol: as §1, §2, §6, §4, §7

[6] = tested on: guinea pig treated with amikacin; details: high dose of amikacin; Nekrassov and Sitges 2000; cited from earlier work
presynaptic Na+ channels = details: brain isolated nerve endings; Sitges and Nekrassov 1999; Trejo et al. 2001; cited from earlier work
[7] = 4 kHz, 30 min after PTZ 100 mg/kg i.p., vinpocetine 2 mg/kg or vehicle 4 h before PTZ
[8] = 4 kHz, 50 min after PTZ 100 mg/kg i.p., vinpocetine 2 mg/kg or vehicle 4 h before PTZ
[9] = 4 kHz, before PTZ injection, 4 h after vinpocetine 2 mg/kg, mean±SEM, 8 animals
[10] = 8 kHz, 30 min after PTZ 100 mg/kg i.p., vinpocetine 2 mg/kg or vehicle 4 h before PTZ
[11] = 8 kHz, 50 min after PTZ 100 mg/kg i.p., vinpocetine 2 mg/kg or vehicle 4 h before PTZ
[12] = 8 kHz, before PTZ injection, 4 h after vinpocetine 2 mg/kg, mean±SEM, 8 animals
[13] = 4 kHz, 30 min after 4-AP 2 mg/kg i.p., vinpocetine 2 mg/kg or vehicle 1 h before 4-AP
[14] = 4 kHz, 60 min after 4-AP 2 mg/kg i.p., vinpocetine 2 mg/kg or vehicle 1 h before 4-AP
[15] = 8 kHz, 30 min after 4-AP 2 mg/kg i.p., vinpocetine 2 mg/kg or vehicle 1 h before 4-AP
[16] = 8 kHz, 60 min after 4-AP 2 mg/kg i.p., vinpocetine 2 mg/kg or vehicle 1 h before 4-AP

CCOC(=O)C1=C[C@]2(CC)CCCN3CCc4c(n1c1ccccc41)[C@@H]32 [Vinpocetine, ethyl apovincamine-22-oate]
effect on the increase in latencies of the ABR waves P2, P3 and P4 produced by PTZ ([1]; 4 and 8 kHz, vinpocetine 2 mg/kg 4 h before PTZ, FIG. 2): inhibits the increase
P4 wave peak amplitude of the ABR ([1]; 4 kHz, 10 min after PTZ 100 mg/kg i.p., vinpocetine 2 mg/kg or vehicle 4 h before PTZ): 2.55 ± 0.3 μV
P4 wave peak amplitude of the ABR ([1]; 4 kHz, 20 min after PTZ 100 mg/kg i.p., vinpocetine 2 mg/kg or vehicle 4 h before PTZ): 2.52 ± 0.2 μV
P4 wave peak amplitude of the ABR [1, 7]: 2.55 ± 0.2 μV
P4 wave peak amplitude of the ABR [1, 8]: 2.52 ± 0.2 μV
P4 wave peak amplitude of the ABR [1, 9]: 2.82 ± 0.3 μV
P4 wave peak amplitude of the ABR ([1]; 8 kHz, 10 min after PTZ 100 mg/kg i.p., vinpocetine 2 mg/kg or vehicle 4 h before PTZ): 2.56 ± 0.1 μV
P4 wave peak amplitude of the ABR ([1]; 8 kHz, 20 min after PTZ 100 mg/kg i.p., vinpocetine 2 mg/kg or vehicle 4 h before PTZ): 2.71 ± 0.2 μV
P4 wave peak amplitude of the ABR [1, 10]: 2.55 ± 0.2 μV
P4 wave peak amplitude of the ABR [1, 11]: 2.56 ± 0.1 μV
P4 wave peak amplitude of the ABR [1, 12]: 2.69 ± 0.1 μV
auditory threshold [2, 7]: 18 ± 1.2 dB
auditory threshold [2, 8]: 18 ± 1.2 dB
auditory threshold [2, 9]: 20 ± 1.6 dB
auditory threshold [2, 10]: 6.0 ± 1.0 dB
auditory threshold [2, 11]: 6.0 ± 1.0 dB
auditory threshold [2, 12]: 6.0 ± 1.0 dB
effect on changes on the cortical activity (EEG) induced by PTZ [3]: completely inhibits
latency of the P4 wave of the ABR [4, 13]: 3.37 ± 0.06 ms
latency of the P4 wave of the ABR [4, 14]: 3.54 ± 0.11 ms
latency of the P4 wave of the ABR ([4]; 4 kHz, 80 min after 4-AP 2 mg/kg i.p., vinpocetine 2 mg/kg or vehicle 1 h before 4-AP): 3.56 ± 0.04 ms
latency of the P4 wave of the ABR ([4]; 4 kHz, 100 min after 4-AP 2 mg/kg i.p., vinpocetine 2 mg/kg or vehicle 1 h before 4-AP): 3.43 ± 0.09 ms
latency of the P4 wave of the ABR ([4]; 4 kHz, before 4-AP injection, 1 h after vinpocetine 2 mg/kg, 5 animals): 3.45 ± 0.06 ms
latency of the P4 wave of the ABR [4, 15]: 3.55 ± 0.07 ms
latency of the P4 wave of the ABR [4, 16]: 3.45 ± 0.08 ms
latency of the P4 wave of the ABR ([4]; 8 kHz, 80 min after 4-AP 2 mg/kg i.p., vinpocetine 2 mg/kg or vehicle 1 h before 4-AP): 3.36 ± 0.05 ms
latency of the P4 wave of the ABR ([4]; 8 kHz, 100 min after 4-AP 2 mg/kg i.p., vinpocetine 2 mg/kg or vehicle 1 h before 4-AP): 3.35 ± 0.07 ms
latency of the P4 wave of the ABR ([4]; 8 kHz, before 4-AP injection, 1 h after vinpocetine 2 mg/kg, 5 animals): 3.48 ± 0.04 ms
progressive increase in the amplitude of the P3 wave of the ABR produced by 4-AP ([4]; 8 kHz, vinpocetine 2 mg/kg 1 h before 4-AP, FIG. 5a,b): eliminated
reduction in P4 amplitude produced by 4-AP ([4]; 8 kHz, vinpocetine 2 mg/kg 1 h before 4-AP, FIG. 5c,d): markedly reduced
auditory threshold [5, 13]: 11.3 ± 1.3 dB
auditory threshold [5, 14]: 11.3 ± 1.3 dB
auditory threshold ([5]; 4 kHz, before 4-AP injection, 1 h after vinpocetine 2 mg/kg): 13.8 ± 1.3 dB
auditory threshold [5, 15]: −1.3 ± 2.4 dB
auditory threshold [5, 16]: 0.0 ± 3.5 dB
auditory threshold ([5]; 8 kHz, before 4-AP injection, 1 h after vinpocetine 2 mg/kg): 2.5 ± 1.4 dB
protective action over changes in ABR waves, hearing loss and mortality induced by amikacin [6]: long term (more than half a year) protective action
neurotransmitter release induced by an increase in presynaptic Na+ channels permeability (presynaptic Na+ channels): selectively inhibits
